Data as given in ChEMBL document CHEMBL4483862, “Open-source discovery of chemical leads for next-generation chemoprotective antimalarials” (2018).

Test system: Plasmodium berghei
Test: Luciferase/luciferin-expressing antifolate-resistant parasites were used to infect a culture of HepG2 cells that were pre-incubated with compounds. Infected hepatocytes emit light due to the luciferase reaction. Assay results are presented as the percent inhibition of light emission compared to control. […]
Assay type: functional
Conditions: sporozoite; for IC90: read-out: LUCIFERASE INFECTION ASSAY - IC90

Row | SMILES | IC90 [µM] | also measured
1 | N#Cc1c(SCc2ccccc2)nc2c(c1-c1cccs1)CCCC2 | > 9.1 | IC50 (FFLUC_HILL_SLOPE 16.1, FFLUC_R_SQUARED 0.0835, PBLUC_HILL_SLOPE 1.89, PBLUC_R_SQUARED 0.544, read-out: LUCIFERASE INFECTION ASSAY - IC50): 3.48 µM
2 | Cc1cc(C)cc(NC(=O)CCN2c3ccccc3Sc3ccccc32)c1 | > 10 | IC50 (FFLUC_HILL_SLOPE 15.9, FFLUC_R_SQUARED 0.234, read-out: LUCIFERASE INFECTION ASSAY - IC50): > 10 µM
3 | O=C(NC(=O)c1csnn1)Nc1cc(C(F)(F)F)cc(C(F)(F)F)c1 | 2.08 | IC50 (FFLUC_HILL_SLOPE 15.9, FFLUC_R_SQUARED 0.485, HEPG2TOX_HILL_SLOPE 1.3, HEPG2TOX_R_SQUARED 0.92, PBLUC_HILL_SLOPE 2.07, PBLUC_R_SQUARED 0.679, read-out: LUCIFERASE INFECTION ASSAY - IC50): 0.72 µM
4 | CN(Cc1cccc(Cl)c1Cl)C(C(=O)Nc1ccc(Cl)c(C(F)(F)F)c1)c1ccccc1 (stereo not drawn) | > 10 | IC50 (FFLUC_HILL_SLOPE 15.8, FFLUC_R_SQUARED 0.442, HEPG2TOX_HILL_SLOPE 1.06, HEPG2TOX_R_SQUARED 0.598, PBLUC_HILL_SLOPE 0.733, PBLUC_R_SQUARED 0.344, read-out: LUCIFERASE INFECTION ASSAY - IC50): 7.46 µM
5 | Cc1ccc(/C=C/C(=O)NC2CCCc3ccccc32)o1 (stereo not drawn) | > 10 | IC50 (FFLUC_HILL_SLOPE 16.2, FFLUC_R_SQUARED 0.0896, read-out: LUCIFERASE INFECTION ASSAY - IC50): > 10 µM
6 | Cc1cc(/C=N/Nc2ccc(Cl)nn2)c(C)n1-c1ccccc1Cl | 9.4 | IC50 (FFLUC_HILL_SLOPE 16.1, FFLUC_R_SQUARED 0.664, PBLUC_HILL_SLOPE 12.5, PBLUC_R_SQUARED 0.559, read-out: LUCIFERASE INFECTION ASSAY - IC50): 7.88 µM
7 | CC(C)(C)NC(=S)N/N=C/c1ncc(C(F)(F)F)cc1Sc1ccc(Cl)cc1 | 4.33 | IC50 (FFLUC_HILL_SLOPE 15.8, FFLUC_R_SQUARED 0.683, HEPG2TOX_HILL_SLOPE 2.2, HEPG2TOX_R_SQUARED 0.982, PBLUC_HILL_SLOPE 3.41, PBLUC_R_SQUARED 0.827, read-out: LUCIFERASE INFECTION ASSAY - IC50): 2.27 µM
8 | Cc1cc(C(=O)CSc2nnc(Cc3cccc4ccccc34)n2C2CCCCC2)c(C)n1CC(F)(F)F | > 10 | IC50 (FFLUC_HILL_SLOPE 15.7, FFLUC_R_SQUARED 0.514, PBLUC_HILL_SLOPE 7.31, PBLUC_R_SQUARED 0.494, read-out: LUCIFERASE INFECTION ASSAY - IC50): 8.44 µM
9 | C#CCOc1ccccc1/C=C(\C#N)c1nc(N)nc(Nc2ccccc2)n1 | > 10 | IC50 (FFLUC_HILL_SLOPE 15.9, FFLUC_R_SQUARED 0.0727, HEPG2TOX_HILL_SLOPE 1.54, HEPG2TOX_R_SQUARED 0.555, PBLUC_HILL_SLOPE 1.18, PBLUC_R_SQUARED 0.297, read-out: LUCIFERASE INFECTION ASSAY - IC50): > 10 µM
10 | CC(C)(C)c1cc(C(=O)OCC(=O)NC(c2ccccc2)c2ccccc2)cc(C(C)(C)C)c1 | > 10 | IC50 (FFLUC_HILL_SLOPE 15.9, FFLUC_R_SQUARED 0.274, HEPG2TOX_HILL_SLOPE 1.64, HEPG2TOX_R_SQUARED 0.592, PBLUC_HILL_SLOPE 2.07, PBLUC_R_SQUARED 0.325, read-out: LUCIFERASE INFECTION ASSAY - IC50): 7.82 µM
11 | CCOc1ccc(NC(=S)N/N=C2/C(=O)c3cccc4cccc2c34)cc1 | > 10 | IC50 (FFLUC_HILL_SLOPE 16.1, FFLUC_R_SQUARED 0.465, PBLUC_HILL_SLOPE 2.76, PBLUC_R_SQUARED 0.814, read-out: LUCIFERASE INFECTION ASSAY - IC50): 4.61 µM
12 | CCN(CC)c1ccc(N=C2C=CC(=O)c3ccccc32)c(C)c1 | 4.59 | IC50 (FFLUC_HILL_SLOPE 15.8, FFLUC_R_SQUARED 0.584, HEPG2TOX_HILL_SLOPE 2.04, HEPG2TOX_R_SQUARED 0.961, PBLUC_HILL_SLOPE 2.09, PBLUC_R_SQUARED 0.781, read-out: LUCIFERASE INFECTION ASSAY - IC50): 1.61 µM
13 | CSc1nnc(-c2ccc(C(C)(C)C)cc2)[nH]1 | 10.9 | IC50 (FFLUC_HILL_SLOPE 15.7, FFLUC_R_SQUARED 0.752, PBLUC_HILL_SLOPE 2.05, PBLUC_R_SQUARED 0.759, read-out: LUCIFERASE INFECTION ASSAY - IC50): 3.73 µM
14 | Cn1c(C(C#N)c2nc(C#N)c(C#N)nc2Cl)nc2ccccc21 (stereo not drawn) | > 10 | IC50 (FFLUC_HILL_SLOPE 16, FFLUC_R_SQUARED 0.432, read-out: LUCIFERASE INFECTION ASSAY - IC50): > 10 µM
15 | Cc1sc2ncn(CC(=O)NC(c3ccc(F)cc3)c3cccs3)c(=O)c2c1-c1ccccc1 (stereo not drawn) | 9.83 | IC50 (FFLUC_HILL_SLOPE 15.7, FFLUC_R_SQUARED 0.526, PBLUC_HILL_SLOPE 17, PBLUC_R_SQUARED 0.112, read-out: LUCIFERASE INFECTION ASSAY - IC50): 8.64 µM
16 | O=c1cc(NCCC2=CCCCC2)c2ccccc2o1 | 3.21 | IC50 (FFLUC_HILL_SLOPE 16, FFLUC_R_SQUARED 0.221, HEPG2TOX_HILL_SLOPE 2.34, HEPG2TOX_R_SQUARED 0.809, PBLUC_HILL_SLOPE 2.17, PBLUC_R_SQUARED 0.461, read-out: LUCIFERASE INFECTION ASSAY - IC50): 1.17 µM
17 | COCCNC(=O)c1ccc(C2(CNc3ccc(OC)c(OC)c3)CC2)cc1 | 1.89 | IC50 (FFLUC_HILL_SLOPE 16.1, FFLUC_R_SQUARED 0.266, PBLUC_HILL_SLOPE 1.26, PBLUC_R_SQUARED 0.621, read-out: LUCIFERASE INFECTION ASSAY - IC50): 0.332 µM
18 | O=[N+]([O-])c1cnc(Sc2nnc(-c3ccco3)n2-c2ccc(OCc3ccccc3)cc2)s1 | > 6.91 | IC50 (FFLUC_HILL_SLOPE 16.1, FFLUC_R_SQUARED 0.469, read-out: LUCIFERASE INFECTION ASSAY - IC50): > 6.91 µM
19 | Cc1cc(/C=N/Nc2ccnc3cc(Cl)ccc23)c(C)n1-c1cc(S(=O)(=O)N2CCOCC2)ccc1N1CCCC1 | > 10 | IC50 (FFLUC_HILL_SLOPE 15.8, FFLUC_R_SQUARED 0.537, PBLUC_HILL_SLOPE 3.6, PBLUC_R_SQUARED 0.465, read-out: LUCIFERASE INFECTION ASSAY - IC50): 6.84 µM
20 | CC(C)CCNC(=O)C(=Cc1ccc(Oc2ccc(C(C)(C)C)cc2)c([N+](=O)[O-])c1)C(=O)NCCC(C)C | > 10 | IC50 (FFLUC_HILL_SLOPE 15.8, FFLUC_R_SQUARED 0.198, HEPG2TOX_HILL_SLOPE 15.2, 3.81, HEPG2TOX_R_SQUARED 0.607, 0.996, PBLUC_HILL_SLOPE 2.43, PBLUC_R_SQUARED 0.694, read-out: LUCIFERASE INFECTION ASSAY - IC50): 4.43 µM
21 | Cn1nc(-c2ccccc2)c(/C=N/O)c1Sc1ccc(C(C)(C)C)cc1 | > 9.03 | IC50 (FFLUC_HILL_SLOPE 15.8, FFLUC_R_SQUARED 0.096, HEPG2TOX_HILL_SLOPE 2.21, HEPG2TOX_R_SQUARED 0.952, PBLUC_HILL_SLOPE 13.8, PBLUC_R_SQUARED 0.121, read-out: LUCIFERASE INFECTION ASSAY - IC50): 8.79 µM
22 | CCN1N=C(c2ccc(OC)cc2)c2ccc(OC)c3cccc1c23 | 8.69 | IC50 (FFLUC_HILL_SLOPE 16.1, FFLUC_R_SQUARED 0.71, HEPG2TOX_HILL_SLOPE 5.83, HEPG2TOX_R_SQUARED 0.386, PBLUC_HILL_SLOPE 3.16, PBLUC_R_SQUARED 0.408, read-out: LUCIFERASE INFECTION ASSAY - IC50): 4.33 µM
23 | Cc1nn2c(nc(NCc3ccc(Cn4ccnc4)cc3)c3ccccc32)c1Cl | > 10 | IC50 (FFLUC_HILL_SLOPE 16.1, FFLUC_R_SQUARED 0.458, read-out: LUCIFERASE INFECTION ASSAY - IC50): > 10 µM
24 | Cc1ccc(-n2c(C)cc(-c3csc(NC(=O)c4cccc(S(=O)(=O)N5CCc6ccccc65)c4)n3)c2C)cc1 | > 10 | IC50 (FFLUC_HILL_SLOPE 15.8, FFLUC_R_SQUARED 0.357, read-out: LUCIFERASE INFECTION ASSAY - IC50): > 10 µM
25 | COC(=O)c1c(C)[nH]c(C(=O)C(C)Sc2nnc(Cc3cccc4ccccc34)n2C2CCCCC2)c1C (stereo not drawn) | > 10 | IC50 (FFLUC_HILL_SLOPE 16.1, FFLUC_R_SQUARED 0.161, read-out: LUCIFERASE INFECTION ASSAY - IC50): > 10 µM
26 | Cc1ccc(C(=O)c2c(NC(=O)CSc3nc4ccccc4n3CC(C)C)sc3c2CCCC3)cc1 | > 10 | IC50 (FFLUC_HILL_SLOPE 15.8, FFLUC_R_SQUARED 0.569, HEPG2TOX_HILL_SLOPE 0.459, HEPG2TOX_R_SQUARED 0.518, PBLUC_HILL_SLOPE 11.3, PBLUC_R_SQUARED 0.271, read-out: LUCIFERASE INFECTION ASSAY - IC50): > 10 µM
27 | CCCNC(=O)c1c(NC(=O)c2ccc(C(F)(F)F)cc2)nc2ccccn12 | 0.441 | IC50 (FFLUC_HILL_SLOPE 16.1, FFLUC_R_SQUARED 0.832, HEPG2TOX_HILL_SLOPE 0.765, HEPG2TOX_R_SQUARED 0.858, PBLUC_HILL_SLOPE 8.91, PBLUC_R_SQUARED 0.524, read-out: LUCIFERASE INFECTION ASSAY - IC50): 0.344 µM
28 | COc1cc(C(=O)N/N=C2\C(=O)Nc3ccc(C(C)C)cc32)cc(OC)c1OC | > 10 | IC50 (FFLUC_HILL_SLOPE 15.7, FFLUC_R_SQUARED 0.417, HEPG2TOX_HILL_SLOPE 3.31, HEPG2TOX_R_SQUARED 0.963, PBLUC_HILL_SLOPE 2.41, PBLUC_R_SQUARED 0.374, read-out: LUCIFERASE INFECTION ASSAY - IC50): 4.85 µM
29 | Cc1cc(C(=O)C(C)OC(=O)c2ccc(S(=O)(=O)N3CC(C)CC(C)C3)cc2)c(C)n1-c1ccc(Cl)cc1 (stereo not drawn) | 3.47 | IC50 (FFLUC_HILL_SLOPE 16.1, FFLUC_R_SQUARED 0.63, HEPG2TOX_HILL_SLOPE 1.41, HEPG2TOX_R_SQUARED 0.912, PBLUC_HILL_SLOPE 53.4, PBLUC_R_SQUARED 0.359, read-out: LUCIFERASE INFECTION ASSAY - IC50): 3.33 µM
